Measurements: PMC5224920, “Assessing the mechanism and therapeutic potential of modulators of the human Mediator complex-associated protein kinases” (eLife, 2016)

Tested on: 12 single or co-culture in vitro tissue models of primary cells
Test: Culture/co-culture cell model panel, extracellular biomarkers (DiscoveRx); for CCL2/MCP-1: reference of the scale not given here; for CXCL8/IL-8: reference of the scale not given here; for CXCL9/MIG: reference of the scale not given here; for M-CSF: reference of the scale not given here; for SRB: reference of the scale not given here
Type: cell-based, human
[1] = /HDFNo unstimulated fibroblasts, 1.00E4 nM
[2] = /HDFNo unstimulated fibroblasts, 1.11E3 nM
[3] = /HDFNo unstimulated fibroblasts, 1.23E2 nM
[4] = /HDFNo unstimulated fibroblasts, 1.37E1 nM
[5] = /HDFNo unstimulated fibroblasts, 3.33E3 nM
[6] = /HDFNo unstimulated fibroblasts, 3.70E2 nM
[7] = /HDFNo unstimulated fibroblasts, 4.12E1 nM
[8] = /HDFNo unstimulated fibroblasts, 4.57E0 nM

## Cc1n[nH]c2ncc(C(=O)N3CCC[C@H]3c3ccc(Cl)cc3)cc12 [CMPD4]
/HDF3CT, 3.70E2 nM
  M-CSF: -0.052
  MMP-1: -0.021
  PAI-I: -0.054
  SRB: 0.014
  TIMP-2: 0.055
/HDF3CT, 4.12E1 nM
  CCL2/MCP-1: -0.025
  CD54/ICAM-1: -0.054
  CD106/VCAM-1: 0.009
  CXCL8/IL-8: -0.089
  CXCL9/MIG: -0.015
  CXCL10/IP-10: 0.023
  Collagen I: -0.036
  M-CSF: -0.072
  MMP-1: 0.049
  PAI-I: -0.006
  SRB: 0.013
  TIMP-2: 0.105
/HDF3CT, 4.57E0 nM
  CCL2/MCP-1: 0.071
  CD54/ICAM-1: -0.030
  CD106/VCAM-1: 0.022
  CXCL8/IL-8: -0.033
  CXCL9/MIG: 0.019
  CXCL10/IP-10: 0.003
  Collagen I: 0.009
  M-CSF: -0.072
  MMP-1: 0.086
  PAI-I: 0.017
  SRB: 0.023
  TIMP-2: 0.088
[1]
  CXCL8/IL-8: 0.032
  CXCL9/MIG: 0.127
  CXCL10/IP-10: 0.013
  CXCL11/I-TAC: -0.046
  EGFR: 0.051
  M-CSF: 0.0038
  MMP-1: -0.013
  PAI-I: -0.051
  Proliferation_72hr: 0.179
  SRB: 0.000631
  TIMP-1: 0.019
  TIMP-2: -0.228
[2]
  CXCL8/IL-8: -0.076
  CXCL9/MIG: -0.081
  CXCL10/IP-10: -0.021
  CXCL11/I-TAC: -0.035
  EGFR: -0.009
  M-CSF: -0.068
  MMP-1: -0.043
  PAI-I: -0.052
  Proliferation_72hr: 0.134
  SRB: 0.024
  TIMP-1: 0.00471
  TIMP-2: -0.013
[3]
  CXCL8/IL-8: -0.103
  CXCL9/MIG: -0.075
  CXCL10/IP-10: -0.039
  CXCL11/I-TAC: -0.045
  EGFR: -0.011
  M-CSF: 0.013
  MMP-1: -0.032
  PAI-I: 0.00163
  Proliferation_72hr: 0.087
  SRB: 0.010
  TIMP-1: -0.034
  TIMP-2: 0.076
[4]
  CXCL8/IL-8: -0.022
  CXCL9/MIG: -0.044
  CXCL10/IP-10: -0.0053
  CXCL11/I-TAC: -0.037
  EGFR: 0.035
  M-CSF: 0.000135
  MMP-1: -0.004
  PAI-I: -0.012
  Proliferation_72hr: 0.060
  SRB: 0.007
  TIMP-1: 0.000829
  TIMP-2: 0.075
[5]
  CXCL8/IL-8: -0.039
  CXCL9/MIG: -0.027
  CXCL10/IP-10: -0.048
  CXCL11/I-TAC: -0.031
  EGFR: 0.046
  M-CSF: -0.016
  MMP-1: -0.033
  PAI-I: -0.029
  Proliferation_72hr: 0.157
  SRB: 0.00444
  TIMP-1: 0.014
  TIMP-2: -0.121
[6]
  CXCL8/IL-8: -0.076
  CXCL9/MIG: -0.059
  CXCL10/IP-10: -0.040
  CXCL11/I-TAC: -0.00462
  EGFR: -0.018
  M-CSF: -0.00531
  MMP-1: -0.010
  PAI-I: -0.018
  Proliferation_72hr: 0.139
  SRB: 0.020
  TIMP-1: 0.003
  TIMP-2: 0.082
[7]
  CXCL8/IL-8: -0.024
  CXCL9/MIG: -0.065
  CXCL10/IP-10: -0.026
  CXCL11/I-TAC: -0.032
  EGFR: 0.00663
  M-CSF: -0.024
  MMP-1: -0.026
  PAI-I: -0.010
  Proliferation_72hr: 0.102
  SRB: 0.013
  TIMP-1: -0.020
  TIMP-2: 0.059
[8]
  CXCL8/IL-8: 0.034
  CXCL9/MIG: 0.056
  CXCL10/IP-10: 0.00467
  CXCL11/I-TAC: -0.00186
  EGFR: 0.019
  M-CSF: -0.012
  MMP-1: 0.055
  PAI-I: 0.075
  Proliferation_72hr: 0.072
  SRB: 0.043
  TIMP-1: 0.048
  TIMP-2: -0.057
/HDFNo, 1.00E4 nM
  CCL2/MCP-1: 0.040
  CD54/ICAM-1: 0.094
  CD106/VCAM-1: 0.027
  Collagen I: 0.067
  Collagen III: -0.015
/HDFNo, 1.11E3 nM
  CCL2/MCP-1: 0.00326
  CD54/ICAM-1: -0.048
  CD106/VCAM-1: -0.067
  Collagen I: -0.022
  Collagen III: 0.013
/HDFNo, 1.23E2 nM
  CCL2/MCP-1: -0.009
  CD54/ICAM-1: -0.013
  CD106/VCAM-1: -0.096
  Collagen I: -0.065
  Collagen III: 0.012
/HDFNo, 1.37E1 nM
  CCL2/MCP-1: -0.022
  CD54/ICAM-1: -0.024
  CD106/VCAM-1: 0.020
  Collagen I: -0.080
  Collagen III: 0.026
/HDFNo, 3.33E3 nM
  CCL2/MCP-1: -0.021
  CD54/ICAM-1: -0.005
  CD106/VCAM-1: -0.034
  Collagen I: -0.014
  Collagen III: 0.025
/HDFNo, 3.70E2 nM
  CCL2/MCP-1: -0.005
  CD54/ICAM-1: -0.029
  CD106/VCAM-1: -0.058
  Collagen I: -0.055
  Collagen III: 0.000891
/HDFNo, 4.12E1 nM
  CCL2/MCP-1: 0.007
  CD54/ICAM-1: -0.036
  CD106/VCAM-1: -0.047
  Collagen I: -0.086
  Collagen III: 0.030
/HDFNo, 4.57E0 nM
  CCL2/MCP-1: 0.025
  CD54/ICAM-1: 0.028
  CD106/VCAM-1: 0.010
